Among the data in patent publication US20230012368A1 (Hoffmann-La Roche Inc., priority 2018, published 2023) are IC90 values, retold here.

Counter-ions that a name gives are not always drawn. Like-named read-outs stand apart in the source and are kept apart here.

By IC90 is commonly meant the concentration at which the effect reaches the 90% level.

This assay has as its system Acinetobacter baumannii ATCC 17978. Briefly: Antimicrobial susceptibility testing: 90% growth inhibitory concentration (IC90) determination. Conditions: 90% growth inhibitory concentration, Acinetobacter baumannii ATCC17978, Iso-Sensitest broth, OD 600 nm over 16h, read-out: ATCC17978 IC90. The format is cell-based. Summed up:
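Growth of the Acinetobacter baumannii strain was followed by optical density at 600 nm every 20 minutes for 16h at 35±2° C. Inoculum was ~5×10^(5) CFU/ml in Iso-Sensitest medium, with twofold compound dilutions (e.g. 50 to 0.097 μM final). The 90% inhibitory concentration was derived in log-phase growth.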

Setting [1] is: Acinetobacter baumannii, ATCC17978, 16 h.

As to `CCc1cc(Nc2nccn3c(-c4ccc(OC)c(F)c4F)cnc23)ccc1C(=O)NCCCCCN` [Example 418, N-(5-aminopentyl)-4-((3-(2,3-difluoro-4-methoxyphenyl)imidazo[1,2-a]pyrazin-8-yl)amino)-2-ethylbenzamide hydrochloride], the IC90 under setting [1] was 33 nM.

Regarding `COc1ccc(-c2cnc3c(Nc4ccc(C(=O)N(C)CCOn5nnc6cccnc65)c(C)c4)nccn23)cc1F` [Example 305, 4-[[3-(3-fluoro-4-methoxyphenyl)imidazo[1,2-a]pyrazin-8-yl]amino]-N,2-dimethyl-N-[2-(triazolo[4,5-b]pyridin-3-yloxy)ethyl]benzamide], the IC90 under setting [1] was determined as 510 nM.

Consider `COc1ccc(-c2cnc3c(Nc4ccc(C(=O)NCCCN)c(C)c4)nccn23)c(F)c1F` [Example 64, N-(3-aminopropyl)-4-((3-(2,3-difluoro-4-methoxyphenyl)imidazo [1,2-a]pyrazin-8-yl)amino)-2-methylbenzamide], for which the concentration for an effect of 90% (IC90) under setting [1] was found to be 230 nM.

As for `COc1ccc(-c2cnc3c(Nc4ccc(C(=O)NCCCN)c(CC(F)F)c4)nccn23)c(F)c1F` [Example 316, N-(3-aminopropyl)-2-(2,2-difluoroethyl)-4-[[3-(2,3-difluoro-4-methoxyphenyl)imidazo[1,2-a]pyrazin-8-yl]amino]benzamide;formic acid], the IC90 under setting [1] came to 2100 nM.

Regarding `CCc1cc(Nc2nccn3c(-c4ccc(OC)c(F)c4F)cnc23)ccc1C(=O)N[C@@H](C)CNC(=O)[C@@H](N)CCCNC(=N)N` [Example 342, N-[(2S)-1-[[(2S)-2-amino-5-carbamimidamidopentanoyl]amino]propan-2-yl]-4-[[3-(2,3-difluoro-4-methoxyphenyl)imidazo[1,2-a]pyrazin-8-yl]amino]-2-ethylbenzamide; formic acid], the 90% effect concentration (IC90) under setting [1] was 730 nM.

For `CCc1cc(Nc2nccn3c(-c4ccc(OC)c(F)c4F)cnc23)ccc1C(=O)N[C@@H](CCN)C(=O)OC` [Example 322, methyl (2S)-4-amino-2-[[4-[[3-(2,3-difluoro-4-methoxyphenyl)imidazo[1,2-a]pyrazin-8-yl]amino]-2-ethylbenzoyl]amino]butanoate; hydrochloride], the IC90 was determined as 4400 nM.

Turning to `Cc1cc(Nc2nccn3c(-c4ccc(Cl)cc4)cnc23)ccc1C(=O)NCCC1CCN(C)CC1` [Example 186, 4-[[3-(4-chlorophenyl)imidazo[1,2-a]pyrazin-8-yl]amino]-2-methyl-N-[2-(1-methylpiperidin-4-yl)ethyl]benzamide], under setting [1], the IC90 worked out at 260 nM.

Regarding `COc1ccc(-c2cnc3c(Nc4ccc5c(c4)CCN(C)C5=O)nccn23)cc1F` [Example 274, 6-[[3-(3-fluoro-4-methoxyphenyl)imidazo[1,2-a]pyrazin-8-yl]amino]-2-methyl-3,4-dihydroisoquinolin-1-one], the IC90 under setting [1] stood at 240 nM.

In the case of `COc1ccc(-c2cnc3c(Nc4ccc(C(=O)NCC5CCN(C(=N)N)CC5)c(C)c4)nccn23)cc1Cl` [Example 82, N-((1-carbamimidoyl-piperidin-4-yl)methyl)-4-((3-(3-chloro-4-methoxyphenyl)imidazo [1,2-a]pyrazin-8-yl)amino)-2-methylbenzamide], the IC90 under setting [1] was determined as 270 nM.

Take `Cc1cc(Nc2nccn3c(-c4ccc(Cl)c(F)c4F)cnc23)ccc1C(=O)NCC1CCN(C)CC1` [Example 240, 4-[[3-(4-chloro-2,3-difluorophenyl)imidazo[1,2-a]pyrazin-8-yl]amino]-2-methyl-N-[(1-methylpiperidin-4-yl)methyl]benzamide]: the IC90 under setting [1] came out at 1100 nM.

For the molecule `CCc1cc(Nc2nccn3c(-c4ccc(OC)c(F)c4F)cnc23)ccc1C(=O)NCC(C)(C)CN` [Example 98, N-(3-amino-2,2-dimethylpropyl)-4-((3-(2,3-difluoro-4-methoxyphenyl)imidazo [1,2-a]pyrazin-8-yl)amino)-2-ethylbenzamide hydrochloride], under setting [1], the IC90 came to 780 nM.

Take `CCN(CC)C(=O)c1ccc(Nc2nccn3c(-c4ccc(OC)cc4)cnc23)cc1` [Example 227, N,N-diethyl-4-[[3-(4-methoxyphenyl)imidazo[1,2-a]pyrazin-8-yl]amino]benzamide]: the IC90 under setting [1] stood at 610 nM.

For the molecule `CCc1cc(Nc2nccn3c(-c4ccc(OC)c(F)c4F)cnc23)ccc1C(=O)NCC(O)CNC(=O)CCN` (centres unmarked) [Example 146, N-[3-(3-aminopropanoyl-amino)-2-hydroxy-propyl]-4-[[3-(2,3-difluoro-4-methoxy-phenyl)imidazo[1,2-a]pyrazin-8-yl]amino]-2-ethyl-benzamide hydrochloride], the concentration for an effect of 90% (IC90) under setting [1] was 190 nM.

For the molecule `COc1ccc(-c2cnc3c(Nc4ccc(C(=O)NCC5CCNCC5)c(C)c4)nccn23)cc1` [Example 211, 4-[[3-(4-methoxyphenyl)imidazo[1,2-a]pyrazin-8-yl]amino]-2-methyl-N-(piperidin-4-ylmethyl)benzamide;hydrochlo-ride], the IC90 under setting [1] is 640 nM.

Take `COc1ccc(-c2cnc3c(Nc4ccc(C(=O)NCCCNC(=O)CC[C@H](N)C(=O)O)c(C)c4)nccn23)c(F)c1F` [Example 355, (2S)-2-amino-5-[3-[[4-[[3-(2,3-difluoro-4-methoxyphenyl)imidazo[1,2-a]pyrazin-8-yl]amino]-2-methylbenzoyl]amino]propyl-amino]-5-oxopentanoic acid]: the 90% effect concentration (IC90) under setting [1] stood at 2500 nM.

Turning to `CCc1cc(Nc2nccn3c(-c4ccc(OC(F)F)c(F)c4F)cnc23)ccc1C(=O)NCCCO[C@@H]1O[C@H](CO)[C@@H](O)[C@H](O)[C@H]1O` [Example 442, 4-((3-(4-(difluoromethoxy)-2,3-difluorophenyl)imidazo[1,2-a]pyrazin-8-yl)amino)-2-ethyl-N-(3-(((2R,3R,4S,5S,6R)-3,4,5-trihydroxy-6-(hydroxymethyl)tetrahydro-2H-pyran-2-l)oxy)propyl)benzamide], the IC90 under setting [1] was 410 nM.

For `Cc1cc(Nc2nccn3c(-c4ccc(OC(F)F)cc4)cnc23)ccc1C(=O)N(C)CCC1CCN(CCCC(=O)O)CC1` [Example 443, 4-(4-(2-(4-((3-(4-(difluoromethoxy)phenyl)im-idazo[1,2-a]pyrazin-8-yl)amino)-N,2-dimethylbenzamido)ethyl)piperidin-1-yl)butanoic acid hydrochloride], the IC90 under setting [1] worked out at 760 nM.

On to `CCc1cc(Nc2nccn3c(-c4ccc(OC)c(F)c4F)cnc23)ccc1C(=O)NCC(O)CNC(=O)CCCN` (centres unmarked) [Example 410, N-(3-(4-aminobutanamido)-2-hydroxypropyl)-4-((3-(2,3-difluoro-4-methoxyphenyl)imidazo[1,2-a]pyrazin-8-yl)amino)-2-ethylbenzamide hydrochloride], for which, under setting [1], the IC90 is 210 nM.

Regarding `CCc1cc(Nc2nccn3c(-c4ccc(OCC#N)c(F)c4F)cnc23)ccc1C(=O)NCCNC(=O)[C@H](N)CCCNC(=N)N` [Example 148, N-[2-[[(2R)-2-amino-5-guanidino-pentanoyl]amino]ethyl]-4-[[3-[4-(cyanomethoxy)-2,3-difluoro-phenyl]imidazo[1,2-a]pyrazin-8-yl]amino]-2-ethyl-benzamide formate], the IC90 under setting [1] came out at 100 nM.

Take `CCc1cc(Nc2nccn3c(-c4ccc(Oc5ncccn5)c(F)c4F)cnc23)ccc1C(=O)NCC1CCNCC1` [Example 548, 4-((3-(2,3-difluoro-4-(pyrimidin-2-yloxy)phenyl)imidazo[1,2-a]pyrazin-8-yl)amino)-2-ethyl-N-(piperidin-4-ylmethyl)benzamide formate]: under setting [1], the IC90 stood at 470 nM.

Regarding `COc1ccc(-c2cnc3c(Nc4ccc(C(=O)N[C@@H](C)CNC(C)=N)c(C)c4)nccn23)c(F)c1F` [Example 488, 4-[[3-(2,3-difluoro-4-methoxyphenyl)imidazo[1,2-a]pyrazin-8-yl]amino]-#N!- [(2#S!)-1-(ethanimidoylamino)propan-2-yl]-2-methylbenzamide;formic acid], the concentration for an effect of 90% (IC90) under setting [1] amounted to 290 nM.

As to `CCc1cc(Nc2nccn3c(-c4ccc(OC)c(F)c4F)cnc23)ccc1C(=O)NCC(O)CNC(=O)[C@@H](N)CCCN` (mixture of isomers) [Example 413, rac-N-(3-((R)-2,5-diaminopentanamido)-2-hydroxypropyl)-4-((3-(2,3-difluoro-4-methoxyphenyl)imidazo[1,2-a]pyrazin-8-yl)amino)-2-ethylbenzamide dihydrochloride], the IC90 under setting [1] was determined as 470 nM.

Turning to `CCc1cc(Nc2nccn3c(-c4ccc(Oc5ccc(F)cn5)c(F)c4F)cnc23)ccc1C(=O)NCCNC(=O)[C@H](N)CCCNC(=N)N` [Example 424, N-[2-[[(2R)-2-amino-5-guanidino-pentanoyl]amino]ethyl]-4-[[3-[2,3-difluoro-4-[(5-fluoro-2-pyridyl)oxy]phenyl]imidazo [1,2-a]pyrazin-8-yl]amino]-2-ethyl-benzamide; formic acid], under setting [1], the IC90 was determined as 900 nM.

For `CCc1cc(Nc2nccn3c(-c4ccc(OC)c(F)c4F)cnc23)ccc1C(=O)NCCNC(=O)CC(O)CN` (centres unmarked) [Example 376, N-[2-[(4-amino-3-hydroxybutanoyl)amino]ethyl]-4-[[3-(2,3-difluoro-4-methoxyphenyl)imidazo[1,2-a]pyrazin-8-yl]amino]-2-ethylbenzamide], the IC90 under setting [1] was 200 nM.

`CCc1cc(Nc2nccn3c(-c4ccc(OCC#N)c(F)c4Cl)cnc23)ccc1C(=O)NCCNC(=O)[C@H](N)CCCNC(=N)N` [Example 127, N-[2-[[(2R)-2-amino-5-guanidino-pentanoyl]amino]ethyl]-4-[[3-[2-chloro-4-(cyanomethoxy)-3-fluoro-phenyl]imidazo[1,2-a]pyrazin-8-yl]amino]-2-ethyl-benzamide formate]: under setting [1], the IC90 stood at 90 nM.

Turning to `COc1ccc(-c2cnc3c(Nc4ccc(C(=O)NCC5CNCCO5)c(C)c4)nccn23)cc1F` (centres unmarked) [Example 232, 4-[[3-(3-fluoro-4-methoxyphenyl)imidazo[1,2-a]pyrazin-8-yl]amino]-2-methyl-N-(morpholin-2-ylmethyl)benzamide; hydrochlo-ride], under setting [1], the IC90 is 1300 nM.
